Measured values from patent US20260256762A1, “Aromatic Amide Derivative, And Preparation Method Therefor And Medical Use Thereof” (ZHEJIANG HISUN PHARMACEUTICAL CO., LTD., priority 2023, published 2026).

What was measured:
HT-29 cells = assay: Inhibition of proliferation of HT-29 cells (CellTiter-Glo); type: cell-based; conditions: Homo sapiens, HT-29 cells (TP53 R273H mutation), 120 hours, read-out: IC50 inhibiting the proliferation of HT-29 cells
Experimental: (§1) The following method was used to determine the effect of the compound of the present invention on the proliferation of HT-29 cells. HT-29 cells (comprising TP53 R273H mutation) were purchased from the Cell Resource Center of Shanghai Institute of Life Sciences, Chinese Academy of Sciences, and cultured in a McCOY's 5A medium comprising 10% fetal bovine serum, 100 U penicillin and 100 μg/mL streptomycin. Cell viability was determined by Cell Titer-Glo® Luminescent Cell Viability Assay Kit (Promega, article No. G7573).
(§2) An experimental method was carried out according to steps provided in the kit manual, with details as follows: firstly, a test compound was dissolved in DMSO to prepare a 10 mM storage solution, and then diluted with a culture medium to prepare a test sample. A final concentration of the compound ranged from 1000 nM to 0.015 nM. Cells in a logarithmic growth phase were inoculated into a 96-mesh cell culture plate at a density of 1000 cells per mesh, and cultured overnight in a 5% CO2 incubator at 37° C., and then cultured for 120 hours after adding the test compound. After completion of cultivation, 50 uL CellTiter-Glo detection solution was added into each mesh, shook for 5 minutes, and stood for 10 minutes, and then a luminous value of each mesh of the sample was read by a microplate reader using Luminescence mode. Compared with a numerical value of a control group (0.3% DMSO), a percentage inhibition rate of the compound at each concentration point was calculated, and then an IC50 value of the compound inhibiting cell proliferation was obtained by a nonlinear regression analysis with a logarithmic-inhibition rate of the compound concentration in a GraphPad Prism 5 software, as shown in Table 2.

[1] = biological target: T1, recombinant human KIF18A enzyme (Homo sapiens, UniProt Q8NI77); assay: Inhibition of KIF18A enzyme activity (ADP-Glo); type: biochemical; conditions: recombinant human KIF18A protein 100 nM, ATP 60 uM, read-out: IC50 inhibiting KIF18A enzyme activity
T1 construct: purchased Genscript
T1 sequence (Q8NI77 whole entry): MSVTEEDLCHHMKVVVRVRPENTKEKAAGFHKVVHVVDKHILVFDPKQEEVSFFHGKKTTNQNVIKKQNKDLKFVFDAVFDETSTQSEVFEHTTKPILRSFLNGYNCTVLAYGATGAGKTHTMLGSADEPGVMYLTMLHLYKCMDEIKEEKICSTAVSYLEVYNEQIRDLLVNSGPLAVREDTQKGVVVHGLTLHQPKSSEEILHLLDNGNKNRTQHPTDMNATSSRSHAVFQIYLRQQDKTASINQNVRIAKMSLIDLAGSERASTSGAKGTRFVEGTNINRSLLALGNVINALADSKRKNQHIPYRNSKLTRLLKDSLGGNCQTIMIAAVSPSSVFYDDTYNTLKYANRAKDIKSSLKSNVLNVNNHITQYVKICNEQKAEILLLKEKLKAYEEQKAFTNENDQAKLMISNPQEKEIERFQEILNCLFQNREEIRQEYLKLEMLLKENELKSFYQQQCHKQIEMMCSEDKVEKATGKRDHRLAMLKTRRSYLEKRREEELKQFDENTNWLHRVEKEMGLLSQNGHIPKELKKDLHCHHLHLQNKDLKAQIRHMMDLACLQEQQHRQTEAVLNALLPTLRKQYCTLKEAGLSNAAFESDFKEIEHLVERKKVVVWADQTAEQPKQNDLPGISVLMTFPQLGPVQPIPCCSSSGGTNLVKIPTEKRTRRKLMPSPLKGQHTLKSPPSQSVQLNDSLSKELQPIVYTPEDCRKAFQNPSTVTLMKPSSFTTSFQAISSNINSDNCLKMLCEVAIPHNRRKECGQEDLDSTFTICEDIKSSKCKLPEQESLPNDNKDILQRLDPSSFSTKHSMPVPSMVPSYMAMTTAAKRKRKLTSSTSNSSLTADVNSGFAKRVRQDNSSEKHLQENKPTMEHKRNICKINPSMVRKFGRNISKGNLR
T1 sequence (P68363 whole entry partner): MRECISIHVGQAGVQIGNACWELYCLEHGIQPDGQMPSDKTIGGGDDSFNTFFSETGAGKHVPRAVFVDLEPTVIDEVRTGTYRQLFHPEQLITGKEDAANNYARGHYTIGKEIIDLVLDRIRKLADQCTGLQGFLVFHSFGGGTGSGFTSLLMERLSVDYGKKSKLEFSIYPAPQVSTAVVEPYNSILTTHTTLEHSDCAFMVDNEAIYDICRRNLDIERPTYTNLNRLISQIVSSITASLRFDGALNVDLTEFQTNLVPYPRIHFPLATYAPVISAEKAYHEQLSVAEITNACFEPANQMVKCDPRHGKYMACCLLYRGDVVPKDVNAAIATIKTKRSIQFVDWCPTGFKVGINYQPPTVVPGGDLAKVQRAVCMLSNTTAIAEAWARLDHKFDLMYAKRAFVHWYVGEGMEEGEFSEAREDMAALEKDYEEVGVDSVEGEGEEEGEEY
T1 sequence (P07437 whole entry partner): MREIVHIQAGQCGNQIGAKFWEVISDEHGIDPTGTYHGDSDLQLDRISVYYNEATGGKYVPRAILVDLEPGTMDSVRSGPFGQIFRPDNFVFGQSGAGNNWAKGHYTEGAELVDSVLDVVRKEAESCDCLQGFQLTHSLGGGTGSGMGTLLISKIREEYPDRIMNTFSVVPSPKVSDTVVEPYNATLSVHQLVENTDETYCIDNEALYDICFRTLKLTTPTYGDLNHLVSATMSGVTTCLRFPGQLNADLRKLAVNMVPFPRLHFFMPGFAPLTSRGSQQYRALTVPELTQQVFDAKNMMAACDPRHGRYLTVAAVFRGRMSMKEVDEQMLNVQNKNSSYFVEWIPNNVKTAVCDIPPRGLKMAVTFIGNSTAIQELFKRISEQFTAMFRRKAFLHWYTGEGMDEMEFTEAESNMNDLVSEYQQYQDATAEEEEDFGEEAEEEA
Experimental: The following method was used to determine a degree of inhibition of the compound of the present invention on the activity of recombinant human KIF18A enzyme in vitro. The method used ADP-Glo™ Kinase Assay kit (article No. V9102) of Promega Company. For detailed experimental operation, please refer to the kit instructions.
Firstly, the compound and recombinant human KIF18A protein (final concentration of 100 nM, entrusted to Genscript for expression) were added into the mesh, and incubated at room temperature for 20 minutes. Then, ATP solution (component V915A from ADP-Glo™ Kinase Assay kit, final concentration of 60 uM) was added to the reaction solution, and the mixture was incubated at room temperature for 20 minutes. Subsequently, 5 μL ADP-Glo Reagent was added to the reaction system and the obtained system was incubated at troom temperature for 50 minutes. After that, 10 μL of Kinase Detection Reagent was added to the reaction system and the obtained system was incubated at room temperature for 30 minutes. After the completion of incubation, a chemiluminescence intensity value of each mesh was measured by a microplate reader using Luminescence mode.

OVCAR-3 cells = assay: Inhibition of proliferation of OVCAR-3 cells (CellTiter-Glo); type: cell-based; conditions: Homo sapiens, OVCAR-3 cells (TP53 R248Q mutation), 72 hours, read-out: IC50 inhibiting the proliferation of OVCAR-3 cells
Experimental: as §1, with “OVCAR-3” for “HT-29”, “R248Q” for “R273H”, “RPMI 1640” for “McCOY's 5A”, “comprising10%” for “comprising 10%”
as §2, with “per mesh, cultured overnight” for “per mesh, and cultured overnight”, “cultured for 72 hours after” for “cultured for 120 hours after”, “Compared with the numerical value” for “Compared with a numerical value”, “in Table 1.” for “in Table 2.”

[2] = Pharmacokinetic test in mice after gavage administration; type: in vivo; conditions: ICR mice, male, Oral (10 mg/mL), plasma
Experimental: Control Compound AMG650, Compound 9;
ICR mice, male, 27.3-30.3 g, purchased from Charles River Experimental Animal Technology Co., Ltd.
A proper amount of pharmaceutical compound was weighed, a proper amount of DMA, CrEL and 5% GS were added in turn, then the system was mixed evenly by ultrasonic vortex to prepare a 1 mg/mL drug administration preparation, wherein DMA, CrEL and 5% GS=10:10:80 (v:v:v).
ICR mice, each compound injection group (9 mice in each group) to be determined, were fasted overnight, fed was given 4 hours after gavage administration (PO, the dosage of the compound was 10 mg/kg, the dosage volume was 10 mL/kg).
About 0.1 mL blood was collected from orbits 0.25 hours, 0.5 hours, 1 hour, 2 hours, 4 hours, 8 hours, 10 hours and 24 hours […] after drug administration, and a whole blood sample was placed in an anticoagulant tube including EDTA-K2. Blood samples were collected and then placed on ice, and plasma was separated by centrifugation (centrifugation condition: 1500 g, 10 minutes). The collected plasma was stored at −40° C. to −20° C. before analysis.
LC-MS/MS was used to determine the content of compounds to be tested in plasma of mice after gavage administration.

Compound	IC50 (HT-29 cells)	IC50 [1]	IC50 (OVCAR-3 cells)	also measured
N#Cc1ccc(NC(=O)c2ccc(NS(=O)(=O)CCO)cc2N2CCC3(CC2)CC3)cc1N1CCC(F)(F)CC1 [Example 7, N-(4-cyano-3-(4,4-difluoropiperidin-1-yl)phenyl)-4-((2-hydroxyethyl)sulfonamido)-2-(6-azaspiro[2.5]octan-6-yl)benzamide]	52.4 nM	177 nM	1.9 nM	
CCS(=O)(=O)Nc1ccc(C(=O)Nc2ccc(C#N)c(N3CCC(F)(F)CC3)c2)c(N2CCC3(CC2)CC3)c1 [Example 8, N-(4-cyano-3-(4,4-difluoropiperidin-1-yl)phenyl)-4-(ethylsulfonamido)-2-(6-azaspiro[2.5]octan-6-yl) benzamide]	14.5 nM	97.8 nM	17.4 nM	
CCS(=O)(=O)Nc1ccc(C(=O)Nc2ccc(OC(F)(F)F)c(N3CCC(F)(F)CC3)c2)c(N2CCC3(CC2)CC3)c1 [Example 13, N-(3-(4,4-difluoropiperidin-1-yl)-4-(trifluoromethoxy)phenyl)-4-(ethylsulfonamido)-2-(6-azaspiro[2.5]octan-6-yl)benzamide]		137 nM		
CCS(=O)(=O)Nc1ccc(C(=O)Nc2ccc(OC)c(CN3CC(F)(F)C3)c2)c(N2CCC3(CC2)CC3)c1 [Example 11, N-(3-((3,3-difluoroazetidin-1-yl)methyl)-4-methoxyphenyl)-4-(ethylsulfonamido)-2-(6-azaspiro[2.5]octan-6-yl)benzamide]	3.9 nM	145 nM	14.7 nM	
CCS(=O)(=O)Nc1ccc(C(=O)Nc2ccc(OC)c(N3CCOCC3)c2)c(N2CCC3(CC2)CC3)c1 [Example 10, 4-(ethylsulfonamido)-N-(4-methoxy-3-morpholinophenyl)-2-(6-azaspiro[2.5]octan-6-yl)benzamide]	42.8 nM		7.5 nM	
Cc1cc(NC(=O)c2ccc(NS(=O)(=O)CCO)cc2N2CCC3(CC2)CC3)nc(N2CCC(F)(F)CC2)n1 [AMG 650, reference compound]				Blood concentration Cmax [2]: 3050 ng/mL; Curve area AUC0-∞ [2]: 52500 ng·h/mL; Half-life period T½ [2]: 9.64 h
CCS(=O)(=O)Nc1ccc(C(=O)Nc2ccc(OC)c(-c3ccc(F)cn3)c2)c(N2CCC3(CC2)CC3)c1 [Example 16, 4-(ethylsulfonamido)-N-(3-(5-fluoropyridine-2-yl)-4-methoxyphenyl)-2-(6-azaspiro [2.5]octan-6-yl) benzamide]	27.1 nM	185 nM	4.5 nM	
COc1ccc(NC(=O)c2ccc(NS(=O)(=O)CCO)cc2N2CCC3(CC2)CC3)cc1N1CCC(F)(F)CC1 [Example 6, N-(3-(4,4-difluoropiperidin-1-yl)-4-methoxyphenyl)-4-((2-hydroxyethyl)sulfonamido)-2-(6-azaspiro[2.5]octan-6-yl)benzamide]	3.2 nM		1.5 nM	
CCS(=O)(=O)Nc1ccc(C(=O)Nc2ccc(OC)c(N3CCC(F)(F)CC3)c2)c(N2CCC3(CC2)CC3)c1 [Example 9, N-(3-(4,4-difluoropiperidin-1-yl)-4-methoxyphenyl)-4-(ethylsulfonamido)-2-(6-azaspiro[2.5]octan-6-yl) benzamide]	3.3 nM		1.5 nM	Cmax ([2]; mouse, 10 mg/kg, read-out: Blood concentration Cmax): 5270 ng/mL; AUC(0-inf) ([2]; mouse, 10 mg/kg, read-out: Curve area AUC0-∞): 52200 ng·h/mL; half-life ([2]; mouse, 10 mg/kg, read-out: Half-life period T½ (converted)): 5.9 h
